Assays:
[1] = target: T1, human Kv1.1/Kvβ1 potassium ion channel complex (Homo sapiens, UniProt Q09470+Q14722); assay: Inhibiting the inactivation of Kv1.1/Kvβ1 potassium ion channel complex, voltage clamp current recordings in Xenopus oocytes; assay type: cell-based; details: relative to control oocytes without test compound, read-out: Percent Increase in Steady State Current (@ concentration shown in parentheses)
T1 construct: expressed in transfected cells; host or cells: Xenopus oocytes injected with cRNA
Experimental: Compounds useful in this invention were examined for their ability to inhibit the inactivation of the human Kv1.1/Kvβ1 potassium ion channel complex in vitro using electrophysiological current recordings on inactivating Kv1.1/Kvβ1channels expressed in Xenopus oocytes. The following procedure was used.
Xenopus oocytes were harvested from frogs under general anesthesia using aseptic techniques. Oocytes were treated with 2 mg/ml collagenase for 1-1.5 hr, defolliculated, and injected with 40 nL cRNA (a mixture of hKv1.1 and hKvβ1) produced using standard molecular biological techniques (Sambrook, et al., 1989, Molecular Cloning: A Laboratory Manual). The concentration of hKv1.1/hKvβ1 cRNA varies, but was generally about 50 ng/μL hKv1.1 and […] hkβ1.
Currents were recorded using standard voltage clamp amplifiers at room temperature. Recordings were performed in the bath solution “ND-96” containing 96 mM NaCl, 2 mM KCl, 1 mm CaCl2, 1 mM MgCl2, 10 mM HEPES and […] Gentamycin (pH=7.6). The pipette (electrode) solution generally consisted of 3 mM KCl. Electrodes were made from WPI TW150F-4 borosilicate glass (or equivalent) and typically had resistances of 0.5-1.5 Mohms. The standard current—voltage (IV) pulse protocol consisted of voltage steps from −60 mV to +50 mV, in 10 mV increments for 200 ms, at a frequency of one IV set per 2 minutes. Data were digitized and analyzed by standard software packages.
Test compounds where first dissolved in DMSO to an initial concentration of 1-100 mM. Working dilutions of 1:2000 to 1:500 were made in the bath solution for final concentrations in the micromolar range. The bath solutions containing the test compounds were applied by bath perfusion using gravity or pump-driven flow. A minimum of 2 mL (10 times the bath volume) over 3 minutes were flowed for each compound concentration tested. Data were averaged across at least 3 cells tested for each concentration.
Test compounds were examined for their ability to inhibit the inactivation of the steady state portion of the IV curve.

T1 sequence (Q09470 whole entry): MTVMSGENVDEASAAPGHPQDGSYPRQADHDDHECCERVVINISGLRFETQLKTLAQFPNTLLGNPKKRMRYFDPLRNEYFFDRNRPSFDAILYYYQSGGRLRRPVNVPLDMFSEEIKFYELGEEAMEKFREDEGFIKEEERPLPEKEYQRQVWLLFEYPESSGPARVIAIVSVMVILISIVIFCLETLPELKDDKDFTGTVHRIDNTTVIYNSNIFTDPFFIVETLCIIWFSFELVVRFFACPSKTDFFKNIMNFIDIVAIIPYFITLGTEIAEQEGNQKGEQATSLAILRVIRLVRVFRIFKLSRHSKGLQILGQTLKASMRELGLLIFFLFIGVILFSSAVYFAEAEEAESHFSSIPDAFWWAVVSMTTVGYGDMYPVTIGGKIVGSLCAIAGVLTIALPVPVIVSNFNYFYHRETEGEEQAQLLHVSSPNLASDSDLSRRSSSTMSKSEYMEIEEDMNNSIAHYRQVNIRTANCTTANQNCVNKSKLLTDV
T1 sequence (Q14722 whole entry): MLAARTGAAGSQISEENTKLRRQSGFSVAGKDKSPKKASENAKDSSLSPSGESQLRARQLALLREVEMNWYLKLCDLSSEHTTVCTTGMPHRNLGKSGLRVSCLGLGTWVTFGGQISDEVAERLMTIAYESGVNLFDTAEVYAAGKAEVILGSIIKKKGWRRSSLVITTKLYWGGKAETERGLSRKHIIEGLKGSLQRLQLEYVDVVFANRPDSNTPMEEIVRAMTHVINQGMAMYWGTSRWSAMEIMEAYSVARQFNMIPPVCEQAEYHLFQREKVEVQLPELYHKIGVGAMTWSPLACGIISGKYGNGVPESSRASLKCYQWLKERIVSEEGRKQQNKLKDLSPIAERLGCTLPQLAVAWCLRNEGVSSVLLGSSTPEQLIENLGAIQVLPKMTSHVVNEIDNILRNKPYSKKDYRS

Compound	melting point	activation at 300 µM [1]	activation at 50 µM [1]	activation at 100 µM [1]
CC1(C)CC(=O)C(C(=S)Nc2ccc(Cl)c(Cl)c2)C(=O)C1 [Example 3, N-(3,4-dichlorophenyl)-4,4-dimethyl-2,6-dioxocyclohexanecarbothioamide]	113 to 116 °C			
CC1(C)CC(=O)C(C(=S)Nc2ccc(Cl)c(C(F)(F)F)c2)C(=O)C1 [Example 4, N-[4-chloro-3-(trifluoromethyl)phenyl]-4,4-dimethyl-2,6-dioxocyclohexane-carbothioamide]	101 to 102 °C	9%		
CC1(C)CC(=O)C(C(=O)Nc2ccc(Cl)c(C(F)(F)F)c2)C(=O)C1 [Example 5, N-[4-chloro-3-(trifluoromethyl)phenyl]-4,4-dimethyl-2,6-dioxocyclohexanecarboxamide]			16%	
CC1(C)CC(=O)C(C(=O)Nc2ccccc2[N+](=O)[O-])C(=O)C1 [Example 6, 4,4-dimethyl-N-(2-nitrophenyl)-2,6-dioxocyclohexanecarboxamide]				58%
CC1(C)CC(=O)C(C(=O)Nc2ccc(Cl)cc2C(F)(F)F)C(=O)C1 [Example 7, N-[4-chloro-2-(trifluoromethyl)phenyl]-4,4-dimethyl-2,6-dioxocyclohexanecarboxamide]				45%
CC(C)C1CC(=O)C(C(=O)Nc2ccc(Cl)c(Cl)c2)C(=O)C1 (centres unmarked) [Example 10, N-(3,4-dichlorophenyl)-4-isopropyl-2,6-dioxocyclohexanecarboxamide]	138 °C		38%	
O=C1CSCC(=O)C1C(=O)Nc1ccc(Cl)c(C(F)(F)F)c1 [Example 11, N-[4-chloro-3-(trifluoromethyl)phenyl]-3,5-dioxotetrahydro-2H-thiopyran-4-carboxamide]	108 to 110 °C		106%	
CC1(C)CC(=O)C(C(=O)Nc2ccc([N+](=O)[O-])cc2)C(=O)C1 [Example 12, 4,4-dimethyl-N-(4-nitrophenyl)-2,6-dioxocyclohexanecarboxamide]				104%
CCC1(C)CC(=O)C(C(=O)Nc2cccc(C(F)(F)F)c2)C(=O)C1 (centres unmarked) [Example 13, N-(3-trifluoromethylphenyl)-4-ethyl-4-methyl-2,6-dioxocyclohexanecarboxamide]	81 to 82 °C		9%	
CCC1(C)CC(=O)C(C(=O)Nc2ccc(Cl)c(C(F)(F)F)c2)C(=O)C1 (centres unmarked) [Example 14, N-(4-chloro-3-trifluoromethylphenyl)-4-ethyl-4-methyl-2,6-dioxocyclohexanecarboxamide]	87 to 88 °C		98%	
CCC1(C)CC(=O)C(C(=O)Nc2ccc(Cl)c(Cl)c2)C(=O)C1 (centres unmarked) [Example 15, N-(3,4-dichlorophenyl)-4-ethyl-4-methyl-2,6-dioxocyclohexanecarboxamide]	74 to 75 °C		64%	
CCC1(C)CC(=O)C(C(=O)Nc2ccc(F)c(Cl)c2)C(=O)C1 (centres unmarked) [Example 16, N-(3-chloro-4-fluororphenyl)-4-ethyl-4-methyl-2,6-dioxocyclohexanecarboxamide]	91 to 92 °C		18%	
CCC1(C)CC(=O)C(C(=O)Nc2ccc(C(F)(F)F)cc2)C(=O)C1 (centres unmarked) [Example 17, N-(4-trifluoromethylphenyl)-4-ethyl-4-methyl-2,6-dioxocyclohexanecarboxamide]	99 to 100 °C		105%	
CCC1(C)CC(=O)C(C(=O)Nc2cc(C(F)(F)F)cc(C(F)(F)F)c2)C(=O)C1 (centres unmarked) [Example 18, N-(3,5-bis-trifluoromethylphenyl)-4-ethyl-4-methyl-2,6-dioxocyclohexanecarboxamide]	72 to 73 °C		106%	
CC1(C)CC(=O)C(C(=O)Nc2ccc(Cl)c(C(F)(F)F)c2)C(=O)O1 (centres unmarked) [Example 19, N-[4-chloro-3-(trifluoromethyl)phenyl]-6,6-dimethyl-2,4-dioxotetrahydro-2H-pyran-3-carboxamide]	156 to 156.4 °C		68%	
CC1(C)CC(=O)C(C(=O)Nc2ccc(C(F)(F)F)cc2)C(=O)O1 (centres unmarked) [Example 20, N-[4-(trifluoromethyl)phenyl]-6,6-dimethyl-2,4-dioxotetrahydro-2H-pyran-3-carboxamide]	175.9 to 176.4 °C		17%	
CC1(C)CC(=O)C(C(=O)Nc2cccc(C(F)(F)F)c2)C(=O)O1 (centres unmarked) [Example 21, N-[3-(trifluoromethyl)phenyl]-6,6-dimethyl-2,4-dioxotetrahydro-2H-pyran-3-carboxamide]	149.6 to 150.1 °C		13%	
CC1(C)CC(=O)C(C(=O)Nc2cccc([N+](=O)[O-])c2)C(=O)O1 (centres unmarked) [Example 22, N-(3-nitrophenyl)-6,6-dimethyl-2,4-dioxotetrahydro-2H-pyran-3-carboxamide]	138.4 to 139.6 °C		10%	
CC1(C)CC(=O)C(C(=O)Nc2ccc(Cl)c(Cl)c2)C(=O)O1 (centres unmarked) [Example 23, N-(3,4-dichlorophenyl)-6,6-dimethyl-2,4-dioxotetrahydro-2H-pyran-3-carboxamide]	212 to 215 °C		22%	
CC1(C)COC(=O)C(C(=O)Nc2cccc(C(F)(F)F)c2)C1=O (centres unmarked) [Example 24, N-[3-(trifluoromethyl)phenyl]-5,5-dimethyl-2,4-dioxotetrahydro-2H-pyran-3-carboxamide]			5%	
CC1(C)COC(=O)C(C(=O)Nc2ccc(C(F)(F)F)cc2)C1=O (centres unmarked) [Example 25, N-[4-(trifluoromethyl)phenyl]-5,5-dimethyl-2,4-dioxotetrahydro-2H-pyran-3-carboxamide]			10%	
CC1(C)COC(=O)C(C(=O)Nc2ccc(Cl)c(C(F)(F)F)c2)C1=O (centres unmarked) [Example 26, N-[4-chloro-3-(trifluoromethyl)phenyl]-5,5-dimethyl-2,4-dioxotetrahydro-2H-pyran-3-carboxamide]	144 to 145 °C		173%	
CC1(C)CC(=O)C(C(=O)Nc2ccc(C(F)(F)F)cc2)C(=O)C1F (centres unmarked) [Example 27, 3-Fluoro-4,4-dimethyl-2,6-dioxo-cyclohexanecarboxylic acid(4-trifluoromethyl-phenyl)-amide]	129 °C		191%	
CC1(C)CC(=O)C(C(=O)Nc2cc(Cl)cc(Cl)c2)C(=O)C1F (centres unmarked) [Example 28, 3-Fluoro-4,4-dimethyl-2,6-dioxo-cyclohexanecarboxylic acid(3,5-dichloro-phenyl)-amide]			279%	
CC1(C)CC(=O)C(C(=O)Nc2cc(F)cc(F)c2)C(=O)C1F (centres unmarked) [Example 29, 3-Fluoro-4,4-dimethyl-2,6-dioxo-cyclohexanecarboxylic acid(3,5-difluoro-phenyl)-amide]	131 to 132 °C		258%	
CC1(C)CC(=O)C(C(=O)Nc2cccc(C(F)(F)F)c2)C(=O)C1c1ccccc1 (centres unmarked) [Example 30, 4,4-Dimethyl-2,6-dioxo-3-phenyl-cyclohexanecarboxylic acid(3-trifluoromethyl-phenyl)-amide]			8%	
CCOC(=O)C1C(=O)C(C(=O)Nc2cccc(C(F)(F)F)c2)C(=O)C2CCCCC21 (centres unmarked) [Example 31, 2,4-Dioxo-3-(3-trifluoromethyl-phenylcarbamoyl)-decahydro-naphthalene-1-carboxylic acid ethyl ester]			227%	
CC1(c2ccccc2)CCC(=O)C(C(=O)Nc2cccc(C(F)(F)F)c2)C1=O (centres unmarked) [Example 32, 3-Methyl-2,6-dioxo-3-phenyl-cyclohexanecarboxylic acid(3-trifluoromethyl-phenyl)-amide]			6%	
COCC1C(=O)C(C(=O)Nc2cccc(C(F)(F)F)c2)C(=O)CC1(C)C (centres unmarked) [Example 33, 3-Methoxymethyl-4,4-dimethyl-2,6-dioxo-cyclohexanecarboxylic acid (3-trifluoromethyl-phenyl)-amide]			1%	
O=C1OC2(CCCC2)OC(=O)C1C(=S)Nc1ccc(Cl)c(C(F)(F)F)c1 [Example 34, 7,9-Dioxo-6,10-dioxa-spiro[4.5]decane-8-carbothioic acid(4-chloro-3-trifluoromethyl-phenyl)-amide]		95%		
